SMILES | glass transition temperature [°C]
*c1cc(C(c2ccc(OCCN(C)c3ccc(/C=C/C4=CC(=C(/C#N)C(=O)OC)/CC(C)(C)C4)cc3)c(N3C(=O)c4ccc(Oc5ccc6c(c5)C(=O)N(*)C6=O)cc4C3=O)c2)(C(F)(F)F)C(F)(F)F)ccc1OCCN(c1ccccc1)c1ccc(/C=C/C2=CC(=C(/C#N)C(=O)OC)/CC(C)(C)C2)cc1 (repeat unit) | 207.00
*Nc1ccccc1CCc1ccccc1NC(=O)Nc1ccc(CCc2ccc(NC(*)=O)cc2)cc1 (repeat unit) | 235.00
*CC(C)(C)O* (repeat unit) | 40.50
*Oc1ccc(NC(=O)c2cccc(C(=O)Nc3ccc(*)cc3)c2)cc1 (repeat unit) | 264.00
*Nc1ccc(C(C)(C)c2cccc(C(C)(C)c3ccc(NC(=C(C#N)C#N)c4ccc(C(*)=C(C#N)C#N)cc4)cc3)c2)cc1 (repeat unit) | 208.00
*c1ccc2c(c1)C(=O)N(c1c(C)cc(C)c(N3C(=O)c4ccc(C(*)(C(F)(F)F)C(F)(F)F)cc4C3=O)c1C)C2=O (repeat unit) | 377.00
*CCCCN1C(=O)c2ccc(C(c3ccc4c(c3)C(=O)N(*)C4=O)(C(F)(F)F)C(F)(F)F)cc2C1=O (repeat unit) | 190.00
*CC(*)c1ccc(COCCO)cc1 (repeat unit) | 46.00
*CC(*)C(=O)OCCC(F)(F)C(F)(F)C(F)(F)C(F)(F)C(F)(F)C(F)(F)C(F)(F)C(F)(F)F (repeat unit) | 52.00
*c1ccc2c(c1)C(=O)N(c1ccc(-c3ccc(N4C(=O)c5ccc(C(*)(C(F)(F)F)C(F)(F)F)cc5C4=O)c(O)c3)cc1O)C2=O (repeat unit) | 358.00
*Oc1ccc(NC(=O)c2ccc(C(=O)Nc3ccc(Oc4ccc(C5(c6ccc(*)cc6)CC6CCC5C6)cc4)cc3)cc2)cc1 (repeat unit) | 281.00
*CC(C)(CO*)COCCOCCOCCOC (repeat unit) | -18.00
*c1ccc2c(c1)C(=O)N(c1ccc(Oc3ccc4ccc(Oc5ccc(N6C(=O)c7ccc(C(*)(C(F)(F)F)C(F)(F)F)cc7C6=O)cc5)cc4c3)cc1)C2=O (repeat unit) | 302.30
*/C=C/C(C)C(*)C(=O)OCCCN(C)c1ccc(N(C)C)cc1 (repeat unit) | 11.50
*C1C(=O)N(c2cc(Br)c(O[Si](C)(C)C(C)(C)C)c(Br)c2)C(=O)C1* (repeat unit) | 164.00
*CC(O)COc1ccc(C(C)(C)c2ccc(OCC(O)COc3cccc(NC(=O)CCCCCCCCCCC(=O)Nc4cccc(O*)c4)c3)cc2)cc1 (repeat unit) | 90.00
*CC(*)(C)C(=O)OCCCCCCOc1ccc(C(=O)Oc2ccc(/N=N/c3ccc(Cl)cc3)c3ccccc23)cc1 (repeat unit) | 50.00
*C(=O)c1ccc2c(c1)C(=O)N(c1ccc(C(=O)c3ccc(C(=O)c4ccc(N5C(=O)c6ccc(*)cc6C5=O)cc4)cc3)cc1)C2=O (repeat unit) | 286.00
*c1ccc2c(c1)C(=O)N(c1c(C)cc(C(c3cc(C)c(N4C(=O)c5ccc(C(*)(C(F)(F)F)C(F)(F)F)cc5C4=O)c(C)c3)c3cccc4ccccc34)cc1C)C2=O (repeat unit) | 314.00
*Nc1ccc(-c2ccc(NC(=O)c3cccc(C(*)=O)c3)c(O)c2)cc1O (repeat unit) | 386.00
*CC(*)c1cc(Br)ccc1OCCCC (repeat unit) | 47.00
*CC(*)C(=O)OCCSC (repeat unit) | -60.00

SMILES | glass transition temperature [°C]
*CCC(C)C(C)CCNC(=O)c1cc(C(=O)N*)cc(C(C)(C)C)c1 (repeat unit) | 173.00
*Oc1ccc(NC(=O)c2ccc(Oc3ccc(C(C)(C)c4cccc(C(C)(C)c5ccc(Oc6ccc(C(=O)Nc7ccc(Oc8ccc(-c9ccc(*)cc9)cc8)cc7)cc6)cc5)c4)cc3)cc2)cc1 (repeat unit) | 167.00
*CCOCCOC(=O)c1ccc(N/C=N/c2ccc(C(=O)O*)cc2)cc1 (repeat unit) | 77.00
*O[Si](*)(C)CCCCCOc1ccc(/C=C/c2ccc(OC)cc2)cc1 (repeat unit) | 52.00
*CCN(CCOC(=O)Nc1ccc(C)c(NC(=O)O*)c1)c1ccc(/C=C/c2ccc([N+](=O)[O-])cc2)cc1 (repeat unit) | 121.00
*OP(=O)(Oc1ccc(Br)cc1)Oc1c(Br)cc(C(c2cc(Br)c(*)c(Br)c2)(C(F)(F)F)C(F)(F)F)cc1Br (repeat unit) | 152.00
*C(=O)Nc1ccc(S(=O)(=O)c2ccc(NC(=O)c3ccc(N4C(=O)c5ccc(*)cc5C4=O)cc3)cc2)cc1 (repeat unit) | 252.00
*[O][Ca][O]C(=O)c1ccccc1C(=O)OCCCCCOC(=O)NCCCCCCNC(=O)OCCCCCOC(=O)c1ccccc1C(*)=O (repeat unit) | -2.40
*C(=O)Nc1cccc(Oc2cccc(Oc3cccc(Oc4cccc(Oc5cccc(NC(=O)c6ccc7c(c6)C(=O)N(c6ccc(Oc8cccc(Oc9ccc(N%10C(=O)c%11ccc(*)cc%11C%10=O)cc9)c8C#N)cc6)C7=O)c5)c4C#N)c3)c2C#N)c1 (repeat unit) | 199.00
*c1ccc(Oc2ccc(C(=O)c3cccc(C(=O)c4ccc(Oc5ccc(N6C(=O)c7ccc(Oc8ccc(Sc9ccc(Oc%10ccc%11c(c%10)C(=O)N(*)C%11=O)cc9)cc8)cc7C6=O)cc5)cc4)c3)cc2)cc1 (repeat unit) | 192.00
*C(=O)N1C(=S)N(C(=O)c2ccc3c(c2)C(=O)N(c2ccc(Oc4ccc(N5C(=O)c6ccc(*)cc6C5=O)cc4)cc2)C3=O)C(C)=C(C(=O)OCC)C1c1ccc(OC)cc1OC (repeat unit) | 165.00
*Nc1ccc(C(c2ccc(NC(=O)c3cc(NC(=O)CCCCCN4C(=O)c5ccccc5C4=O)cc(C(*)=O)c3)cc2)(C(F)(F)F)C(F)(F)F)cc1 (repeat unit) | 225.00
*CC(CCCC)COC(=O)NC(=O)c1cccc(C(=O)NC(=O)O*)c1 (repeat unit) | 64.00
*/C(=C(/*)c1ccc(C(C)(C)C)cc1)c1ccccc1 (repeat unit) | 200.00
*CCCCCCCCCCOc1ccc(/N=C/c2ccc(/C=N/c3ccc(O*)cc3C)cc2)c(C)c1 (repeat unit) | 77.60
*c1ccc(Oc2ccc(S(=O)(=O)c3ccc(Oc4ccc(C5(*)OC(=O)c6ccccc65)cc4)cc3)cc2)cc1 (repeat unit) | 247.00
*[Si](*)(C)c1ccc(COCCN(CC)c2ccc(/N=N/c3ccc([N+](=O)[O-])cc3)cc2)cc1 (repeat unit) | 152.00
*CC(*)c1cc(C(F)(F)F)cc(C(F)(F)F)c1 (repeat unit) | 116.00
*c1ccc(Oc2ccc(N3C(=O)c4ccc(C(c5ccc6c(c5)C(=O)N(c5ncc(*)s5)C6=O)(C(F)(F)F)C(F)(F)F)cc4C3=O)cc2)cc1 (repeat unit) | 268.20
*COC(=O)NCc1ccc(CNC(=O)OCc2ccc(*)o2)o1 (repeat unit) | 75.00
*CC(*)C(=O)Oc1ccc([N+](=O)[O-])cc1 (repeat unit) | 73.30
*CC(*)(C)C(=O)Oc1c(Cl)c(Cl)c(Cl)c(Cl)c1Cl (repeat unit) | 110.00

Source: the PolyMetriX glass transition set
